Biological target: T1, PolyNic (polygenomic nicotinamidase)
T1 construct: 588 bp PCR product in pET-46 Ek/LIC, expressed in E. coli Rosetta 2 (DE3); dimer
Assay: HPLC nicotinamidase assay, Morrison fit, NAM as substrate (Ki […] with PZA as substrate)
Assay type: biochemical

- Ki: 180 nM
SMILES: O=Cc1cccnc1 [nicotinaldehyde]

From article PMC5147024, “Combined Whole-Cell High-Throughput Functional Screening for Identification of New Nicotinamidases/Pyrazinamidases in Metagenomic/Polygenomic Libraries” (Frontiers in Microbiology, 2016)
